# How the values were obtained:
# [1] = test system: primary OPCs; assay: Survival of OPCs exposed to toxic lipids (calcein AM / propidium iodide, CELIGO); format: cell-based
# Procedure: Whether toxic lipids have similar effects on the function of oligodendrocyte precursor cells (OPCs, the direct ancestors of myelin-forming oligodendrocytes), due to the common features of myelin breakdown and failure to repair such damage in LSDs, was determined. These experiments all used standard techniques (see Mayer et al. PNAS, 91: 7496-7500 (1994); Ibarrola et al. Dev. Biol. 180: 1-121 (1996); Smith et al. PNAS 97: 10032-10037 (2000); Power et al. Dev. Biol. 245: 362-375 (2002); Dietrich et al. J. Biol. 5: e22 (2006); Li et al. PLoS Biol. 5: e35 (2007)), as adapted to enable rapid automated analysis of microscopy images captured using the CELIGO® imaging system (Brooks Automation, Chelmsford, Mass.). This system enables collection of data using brightfield and three-color fluorescence and provides similar information to be obtained at the single cell level in adherent cell cultures as yielded by flow cytometry. This approach enables quantitatively analysis of 80 different experimental conditions (in triplicate) per hour.
# (§1) Studies on division and survival of OPCs exposed to 0.1, 0.5, 1, 2, 5 or 10 μM PC, GPS or LS were conducted for 1, 2, 3 or 5 days. These experiments followed standard procedures (see Mayer et al. PNAS, 91: 7496-7500 (1994); Dietrich et al. J. Biol. 5: e22 (2006); and Han et al. J. Biol. 7 (4):12 (2008)) except that cell death was quantified using calcein AM and propidium iodide (PI) labeling of live cultures was used to identify live and dead cells, respectively. […] These dyes effectively overcome the problems with dyes for which cell numbers are inferred from metabolic activity (e.g., MTT, Alamar Blue), and provide quantitative information on cell numbers. Independent confirmation was obtained in all cases by visual examination of cultures. In these, and all other cases, all experiments were repeated at least three times, and all data points were collected in triplicate. All experiments were conducted in conditions of 5% O2, to more closely mimic physiological oxygen concentrations.
# The sensitivity of primary OPCs to PC was determined. The sensitivity of the cells to glucopsychosine (GPC) and lysosulfatide (LS) was also examined. […] Thus, OPCs are even more sensitive to PC than oligodendrocytes, which are sensitive at 10 μM psychosine. More critically, they are an order of magnitude more sensitive than indicated by studies described in Zaka et al. (Mol. Cell Neurosci. 30 (3): 398-407 (2005)) on immortalized cell lines.
# [2] = test system: OPCs; assay: OPC division by clonal analysis in the presence of psychosine; format: cell-based, rat; settings: OPCs grown in the presence of PDGF for 6 days
# Procedure: As shown, by day 3 even 3.3 μM PC caused marked cell death. Division was analyzed by clonal analysis, and exposure to 1 μM PC caused a marked reduction in clonal size for cells grown in the presence of PDGF for 6 days.
# as §1
# [3] = test system: oligodendrocyte progenitor cells; assay: Migration of oligodendrocyte progenitor cells outward from a drop of cells; format: cell-based; settings: OPCs exposed to PDGF; not a lethal level
# Procedure: Exposure of oligodendrocyte progenitor cells to 1 μM psychosine is enough to greatly reduce cell migration.
# Another aspect of psychosine function is to cause alterations in the cytoskeleton, which in dividing cells is manifested as a failure of migration. The migration of oligodendrocyte progenitor cells outward from a drop of cells was examined. Cells were stained with calcein to label living cells and propidium iodide (PI) to label dead cells. […] This effect was observed on multiple cell types.
# [4] = test system: human fetal neuroepithelial stem cells (hNSCs); assay: Sensitivity of human CNS precursor cells to toxic lipids; format: cell-based
# [5] = test system: lysosomal pH of cells exposed to psychosine; assay: Lysosomal pH in cells exposed to psychosine; format: cell-based; settings: cells exposed to psychosine versus normal cells
# Excerpt: The effects of cytoskeletal collapse and changes in lysosomal pH were examined. […] The agents that protect both division and survival also restore lysosomal pH to a normal range. However, […] that rescue cell division examined for their effects on lysosomal pH also restore normal levels of pH. Thus, rescuing lysosomal pH is not sufficient to rescue cell survival. Further, agents chosen solely on the basis of rescue of lysosomal pH are not sufficient to also function as rescue agents in cell survival.
# [6] = test system: oligodendrocytes; settings: cited from earlier work
# [7] = test system: immortalized cell line characterized as an oligodendrocyte progenitor cell line; settings: Zaka et al.; over 24 hours; cited from earlier work
smiles,measurement,setting,value
CCCCCCCCCCCCC/C=C/[C@@H](O)[C@@H](N)CO[C@@H]1O[C@H](CO)[C@H](O)[C@H](O)[C@H]1O [psychosine],exposure level as low as which toxic for OPCs,[1],5 µM
same,concentration causing marked cell death,"[1]; purified OPCs, by day 3, calcein AM, CELIGO",3.3 µM
same,concentration causing marked reduction in clonal size,[2],1 µM
same,concentration enough to greatly reduce cell migration,[3],1 µM
same,vulnerability of hNSCs compared with rat OPCs,[4],at least as vulnerable
same,effect on pH of exposed cells,[5],becomes more alkaline
same,concentration at which oligodendrocytes are sensitive,[6],10 µM
same,concentration at which immortalized OPC line is vulnerable / marked cell death,[7],50 µM
